The values that follow come from patent publication US20250368662A1, “INHIBITORS OF INDOLEAMINE 2,3-DIOXYGENASE 1 (IDO1) AND TRYPTOPHAN 2,3-DIOXYGENASE (TDO) AND METHODS OF USING SAME” (University of South Carolina, priority 2024, published 2025).

The series relates to EO771 cells. Kind of series: Mouse model of breast cancer (EO771 cells in mammary fat pads). It is filed as in vivo. The following applies: female C57Bl/6 mice, i.p. 10 mg/kg every other day for 3 weeks. The source says: In a mouse model of breast cancer, 8-week-old female C57Bl/6 mice were inoculated with EO771 cells in the 4th pair of mammary fat pads. […] Mice were sacrificed 24 days after cell inoculation.

Molecules are shown by their SMILES.

For `O=C(NCCCCC1CN2C(c3ccc4ccccc4c3)=CSC2=N1)Nc1ccccc1` (centres unmarked) [USCYL01], the body weight entry was “did not affect”; the “weights of the heart, liver, lungs, kidney, brain, and lymph nodes” value is recorded as “did not affect”.
